Here are results for 3 molecules from US20140322278A1, “Modulation of Tissue Transglutaminase Activation in Disease” (The Board of Trustees of the Leland Stanford Junior …, priority 2011, published 2014).

The target in data set [1] is T1, human thioredoxin (Homo sapiens, UniProt P10599).
T1 construct: made in house; host or cells: E. coli
T1 sequence (P10599 1-105): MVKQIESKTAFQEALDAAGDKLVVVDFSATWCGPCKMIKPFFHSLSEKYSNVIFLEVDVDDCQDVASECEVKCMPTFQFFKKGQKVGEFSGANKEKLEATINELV
Description: Inhibition of human thioredoxin by disulfide analogs of PX-12 (kinh/Ki). The format is biochemical.

Data set [2] can be described thus: Reactivity of disulfide inhibitors towards dithiothreitol.
Data set [3] relates to TG2 activation in T84 monolayers. The experiment in a line: Thioredoxin-induced TG2 activation in T84 monolayers, 5BP incorporation ELISA. The format is cell-based, human. The protocol:
(§1) FIG. 7. Dose dependence of TG2 activation in response to recombinant human thioredoxin treatments of T84 and WI-38 monolayers measured in a quantitative enzyme linked immunosorbent type assay. Cellular monolayers were treated for 3 hrs at 0-10 μM thioredoxin with or without TG2 inhibition using 25 μM ERW1041E or with or without using 0-50 μM thioredoxin inhibitor PX-12. TG2 activation was quantified by the amount of 5BP crosslinked to native proteins in the extracellular matrix of cultured monolayers as measured by tetramethylbenzidine turnover via streptavidin-HRP labeling. (A) and (B) Illustrate the dependence of 5BP incorporation on thioredoxin exposure concentration in T84 and WI-38 cells, respectively. […] (C) and (D) Illustrate the dependence of 5BP incorporation on the ability of thioredoxin to activate TG2. TG2 activation was highest for control experiments with 0 μM PX-12. The amount of PX-12 required to reduce the 5BP incorporation in half at saturating concentrations of 3 μM thioredoxin in T84 and WI-38 cultures was 11 μM and 5 μM PX-12, respectively. […] Data reported as mean+/−standard deviation.
(§2) To test whether recombinant human thioredoxin could directly activate TG2 in cell culture, we used T84 and WI-38 monolayers in similar assays as described herein. T84 and WI-38 cells were grown into mature monolayers at which point varying amounts of pre-reduced thioredoxin were added to the culture medium along with 5BP and/or small molecule inhibitors, such as the TG2 inhibitor, ERW1041E, or the thioredoxin inhibitor, PX-12. 5BP incorporated into the extracellular matrix of cultured monolayers via activated TG2 was then quantified.
Background: ELISA stands for enzyme-linked immunosorbent assay.

Data set [4] deals with TG2 activation in WI-38 monolayers. The experiment in a line: Thioredoxin-induced TG2 activation in WI-38 monolayers, 5BP incorporation ELISA. The format is cell-based, human. The protocol: as §1, §2
The target in data set [5] is T2, Trx (Homo sapiens, UniProt P10599).
T2 construct: made in house; host or cells: E. coli (Trx)
T2 sequence (P10599 1-105): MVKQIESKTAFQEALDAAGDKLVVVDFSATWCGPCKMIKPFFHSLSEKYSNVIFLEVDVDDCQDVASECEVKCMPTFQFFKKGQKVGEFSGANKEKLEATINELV
The experiment in a line: Cell-free assay for Trx-mediated activation of oxidized TG2. The format is biochemical. To be noted: dose-dependent; 100 μM PX-12. On the procedure: (§3) To test our hypothesis, we measured the kinetics of Trx-mediated activation of oxidized TG2. Reduced forms of Trx from E. coli and human were prepared by overexpression in and purification from recombinant E. coli. Dithiothreitol (DTT) was used as a reference small molecule reducing agent. […] We therefore quantified the specificity of human Trx for human oxidized TG2 by measuring the Michaelis-Menten parameters for Trx-mediated reduction of oxidized TG2. Insulin, a well-characterized extracellular substrate of Trx, was used as a reference, and human thioredoxin reductase was used as a catalyst to achieve turnover under steady-state conditions. […] Based on these parameters, one can estimate that as little as 2.5 nM Trx in the extracellular matrix should be able to activate 10% of the local oxidized TG2 within 30 min.
The small molecule PX-12 (1,1-methylpropyl 2-imidazolyl disulfide) inhibits Trx by oxidizing its active site Cys.

For data set [6] the following is noted: cited from earlier work.
The target in data set [7] is T3, human TG2 (Homo sapiens, UniProt P21980).
T3 sequence (P21980 1-687): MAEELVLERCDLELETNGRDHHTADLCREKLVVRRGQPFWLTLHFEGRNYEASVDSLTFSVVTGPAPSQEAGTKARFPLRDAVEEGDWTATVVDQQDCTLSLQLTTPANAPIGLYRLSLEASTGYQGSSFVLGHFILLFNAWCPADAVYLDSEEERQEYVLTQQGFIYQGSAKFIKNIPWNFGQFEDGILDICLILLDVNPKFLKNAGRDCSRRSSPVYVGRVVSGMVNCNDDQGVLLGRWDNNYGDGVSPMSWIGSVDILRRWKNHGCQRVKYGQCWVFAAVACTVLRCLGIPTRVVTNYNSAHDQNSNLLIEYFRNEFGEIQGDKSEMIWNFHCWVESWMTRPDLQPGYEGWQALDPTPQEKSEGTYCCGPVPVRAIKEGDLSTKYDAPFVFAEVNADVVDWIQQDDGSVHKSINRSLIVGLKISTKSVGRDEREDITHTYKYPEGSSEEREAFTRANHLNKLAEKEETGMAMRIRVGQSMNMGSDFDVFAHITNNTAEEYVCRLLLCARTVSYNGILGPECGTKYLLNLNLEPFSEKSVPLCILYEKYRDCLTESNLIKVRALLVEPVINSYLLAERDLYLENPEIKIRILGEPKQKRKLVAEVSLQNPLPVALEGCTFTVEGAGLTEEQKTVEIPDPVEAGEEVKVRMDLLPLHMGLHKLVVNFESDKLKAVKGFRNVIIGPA
Description: TG2 inhibition kinetics (kinh/Ki). The format is biochemical.

Data set [8] concerns the target T4, human transglutaminase 1 (TG1) (Homo sapiens, UniProt P22735).
T4 sequence (P22735 1-817): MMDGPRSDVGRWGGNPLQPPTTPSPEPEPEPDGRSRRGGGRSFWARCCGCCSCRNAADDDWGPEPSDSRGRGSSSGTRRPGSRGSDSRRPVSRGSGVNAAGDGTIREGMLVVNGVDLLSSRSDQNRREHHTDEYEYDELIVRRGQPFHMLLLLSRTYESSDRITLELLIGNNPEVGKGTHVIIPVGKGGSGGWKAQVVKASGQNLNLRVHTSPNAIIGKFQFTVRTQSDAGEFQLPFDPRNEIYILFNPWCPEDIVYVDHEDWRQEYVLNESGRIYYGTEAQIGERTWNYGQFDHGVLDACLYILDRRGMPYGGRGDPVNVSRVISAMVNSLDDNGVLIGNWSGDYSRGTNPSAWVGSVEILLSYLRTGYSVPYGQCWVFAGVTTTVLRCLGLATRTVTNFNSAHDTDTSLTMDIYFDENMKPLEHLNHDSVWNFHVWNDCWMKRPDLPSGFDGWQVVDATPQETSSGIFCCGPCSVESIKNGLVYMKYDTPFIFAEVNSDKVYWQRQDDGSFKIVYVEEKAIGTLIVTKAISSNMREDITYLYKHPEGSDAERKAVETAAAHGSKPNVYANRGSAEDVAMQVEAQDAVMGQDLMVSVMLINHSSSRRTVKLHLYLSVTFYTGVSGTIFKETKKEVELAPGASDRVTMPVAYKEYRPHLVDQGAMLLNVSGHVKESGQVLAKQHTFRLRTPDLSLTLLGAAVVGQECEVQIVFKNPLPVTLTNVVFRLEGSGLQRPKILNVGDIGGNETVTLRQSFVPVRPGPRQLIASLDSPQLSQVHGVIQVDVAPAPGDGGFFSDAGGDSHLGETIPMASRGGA
Description: TG1 inhibition kinetics (kinh/Ki). The format is biochemical.

The subject of data set [9] is TG2 activation in T84 monolayers. The experiment in a line: IFN-γ induced TG2 activation in T84 monolayers, 5BP incorporation ELISA. The format is cell-based, human. To be noted: IFN-γ up to 1000 U/mL, 25 μM ERW1041E. On the procedure: FIG. 2. Dose and time dependence of TG2 activation in response to IFN-γ treatments of T84 monolayers measured in a quantitative enzyme linked immunosorbent type assay. T84 monolayers were treated for 1 to 72 hrs at 0-1000 U/mL IFN-γ with or without TG2 inhibition using 25 μM ERW1041E. TG2 activation was quantified by the amount of 5BP crosslinked to native proteins in the T84 cells as measured by tetramethylbenzidine turnover via streptavidin-HRP labeling. 5BP incorporation is dependent on IFN-γ exposure concentration. […] Data reported as mean+/−standard deviation.
FIG. 3. […] (B) Dose and time dependence of TG2 activation in response to IFN-γ treatments of T84 monolayers measured in a quantitative enzyme linked immunosorbent type assay. […] TG2 activation was quantified by the amount of 5BP crosslinked to native proteins in the T84 cells as measured by tetramethylbenzidine turnover via streptavidin-HRP labeling. […]
In addition to increasing the paracellular permeability of antigenic gluten peptides, we sought to determine if IFN-γ could activate TG2 in the extracellular matrix of mature T84 monolayers. […] To quantify the extent to which IFN-γ activates TG2 in the T84 model system, an enzyme linked immunosorbent assay (ELISA) was developed, using streptavidin conjugated to horseradish peroxidase. […]

Data set [10] has as its system Insulin. The experiment in a line: Kinetics of Trx-mediated reduction of insulin (reference substrate). The format is biochemical. To be noted: human thioredoxin reductase as catalyst, steady state. The protocol:
as §3

Setting [11] is: Homo sapiens, saturating 3 μM thioredoxin, read-out: amount of PX-12 required to reduce the 5BP incorporation in half.
Setting [12] is: thioredoxin 0-10 μM, 3 hrs, 25 μM ERW1041E.

“Also recorded” adds a separate entry of the source.

`CCC(C)SSc1ncc[nH]1` (stereo not shown) [compound 1, 1-methylpropyl 2-imidazolyl disulfide]: in [1] (human thioredoxin, bimolecular parameter estimating potency), the “Trx kinh/Ki” value is 2670 M⁻¹ s⁻¹. Also, the Trx/DTT in data set [1] (ratio of reactivity towards Trx relative to DTT (selectivity)) worked out at 15. The DTT k in data set [2] was 180 M⁻¹ s⁻¹. Also, the IC50 in data set [3] (setting [11]) was 11 µM; in [4] (setting [11]), 5 µM. Besides, the “5BP incorporation in response to thioredoxin” value in data set [3] (PX-12 0-50 μM) and in data set [4] (PX-12 0-50 μM) was “quantitatively reduced” each time. Also, in [5], the “Trx-mediated activation of oxidized TG2” value is “complete inactivation”. Besides, in [6] (high doses administered to humans), the “adverse effects in humans” value is “without any serious adverse effects”. In addition, in [6] (previous human clinical studies), the “toxicity due to the 2-butanethiol leaving group” value is given as “dose-limiting toxicity”.
As to `O=C(NC[C@@H]1CC(Br)=NO1)[C@@H]1CCCN1C(=O)OCc1cnc2ccccc2c1` [compound 2], the “kinh/Ki TG2” value in [7] was determined as 283.15 M⁻¹ s⁻¹. Further, the “kinh/Ki TG1” value in data set [8] stood at 220.37 M⁻¹ s⁻¹. For the same molecule, the “TG2 activation (5BP incorporation)” value in data set [9] was “completely blocked 5BP incorporation; also recorded: reduced to basal levels”. In addition, the “TG2 activation (5BP incorporation) in response to thioredoxin” value in [3] (setting [12]) and in data set [4] (setting [12]) was “completely negates; also recorded: reduced to basal levels” in each case.

B1: recombinant human Trx: reduced human thioredoxin, overexpressed in and purified from recombinant E. coli (protein, UniProt P10599 2-105, looked up)
Thioredoxin: VKQIESKTAFQEALDAAGDKLVVVDFSATWCGPCKMIKPFFHSLSEKYSNVIFLEVDVDDCQDVASECEVKCMPTFQFFKKGQKVGEFSGANKEKLEATINELV
modifications: reduced
notes: reduced human thioredoxin, overexpressed in and purified from recombinant E. coli
With B1, in data set [10], the Km was 30 µM.

By Km is commonly meant the concentration of substrate that gives half-maximal velocity.
